Source: ChEMBL document CHEMBL1817546, “The synthesized novel fluorinated compound (LJJ-10) induces death receptor- and mitochondria-dependent apoptotic cell death in the human osteogenic sarcoma U-2 OS cells” (Eur J Med Chem, 2011)

Experiments:
Format in all cases: functional, cell-based
[1] = test system: HL-60; assay: Cytotoxicity against human HL60 cells after 48 hrs by MTT assay; conditions: HL-60, 48 h
[2] = test system: U-937; assay: Cytotoxicity against human U937 cells after 48 hrs by MTT assay; conditions: U-937, 48 h
[3] = Cytotoxicity against human HT29-AK cells after 48 hrs by MTT assay
[4] = test system: COLO 205; assay: Cytotoxicity against human COLO205 cells after 48 hrs by MTT assay; conditions: COLO 205, 48 h
[5] = test system: U2OS; assay: Cytotoxicity against human U2OS cells after 48 hrs by MTT assay
[6] = test system: MCF7; assay: Cytotoxicity against human MCF7 cells after 48 hrs by MTT assay; conditions: MCF7, 48 h
[7] = test system: MDA-MB-231; assay: Cytotoxicity against human MDA-MB-231 cells after 48 hrs by MTT assay; conditions: MDA-MB-231, 48 h

Row | Compound | IC50 [1] [µM] | IC50 [2] [µM] | IC50 [3] [µM] | IC50 [4] [µM] | IC50 [5] [µM] | IC50 [6] [µM] | IC50 [7] [µM]
1 | Cc1ccccc1Nc1nc(-c2cccc(F)c2)nc2ccc(F)cc12 | > 50 | > 50 | > 50 | > 50 | > 50 | > 50 | > 50
2 | Fc1cccc(-c2nc(Nc3ccccc3)c3cc(F)ccc3n2)c1 | 48.3 | 45.5 | 48.3 | 49.7 | 47.6 | 49.7 | 47.8
3 | c1ccc(Nc2nc(-c3ccccc3)nc3ccccc23)cc1 | > 50 | > 50 | > 50 | > 50 | > 50 | > 50 | > 50
4 | Nc1ccc(Nc2nc(-c3cccc(F)c3)nc3ccc(F)cc23)cc1 | > 50 | > 50 | > 50 | > 50 | 44.1 | > 50 | > 50
5 | Cc1ccc(Nc2nc(-c3cccc(F)c3)nc3ccc(F)cc23)cc1 | > 50 | > 50 | > 50 | > 50 | > 50 | > 50 | > 50
6 | Nc1ccccc1Nc1nc(-c2cccc(F)c2)nc2ccc(F)cc12 | 41.3 | 47.2 | > 50 | > 50 | 37.9 | > 50 | > 50
7 | Fc1cccc(-c2nc(Nc3ccccc3Cl)c3cc(F)ccc3n2)c1 | > 50 | > 50 | > 50 | > 50 | > 50 | > 50 | > 50
8 | COc1ccccc1Nc1nc(-c2cccc(F)c2)nc2ccc(F)cc12 | > 50 | > 50 | > 50 | > 50 | > 50 | > 50 | > 50
9 | Fc1cccc(-c2nc(Nc3ccccc3Br)c3cc(F)ccc3n2)c1 | > 50 | > 50 | > 50 | > 50 | > 50 | > 50 | > 50
10 | Nc1cccc(Nc2nc(-c3cccc(F)c3)nc3ccc(F)cc23)c1 | > 50 | > 50 | > 50 | > 50 | 49.6 | > 50 | > 50
11 | Fc1cccc(-c2nc(Nc3cccc(Br)c3)c3cc(F)ccc3n2)c1 | > 50 | > 50 | > 50 | > 50 | > 50 | > 50 | > 50
12 | Oc1ccccc1Nc1nc(-c2cccc(F)c2)nc2ccc(F)cc12 | 44.4 | 46.2 | > 50 | > 50 | 41.4 | > 50 | > 50
13 | Fc1cccc(Nc2nc(-c3cccc(F)c3)nc3ccc(F)cc23)c1 | 43.1 | 42.3 | > 50 | > 50 | 49.6 | 48.7 | 47.6
14 | Oc1ccc(Nc2nc(-c3cccc(F)c3)nc3ccc(F)cc23)cc1 | > 50 | > 50 | > 50 | > 50 | > 50 | > 50 | > 50
15 | Oc1cccc(Nc2nc(-c3cccc(F)c3)nc3ccc(F)cc23)c1 | > 50 | > 50 | > 50 | > 50 | 33.3 | > 50 | > 50
16 | Cc1cccc(Nc2nc(-c3cccc(F)c3)nc3ccc(F)cc23)c1 | > 50 | > 50 | > 50 | > 50 | > 50 | > 50 | > 50
17 | Fc1cccc(-c2nc(Nc3ccc(Cl)cc3)c3cc(F)ccc3n2)c1 | 45.7 | 32.6 | 40.3 | 32.6 | 38.4 | > 50 | > 50
18 | Fc1cccc(-c2nc(Nc3ccccc3)c3ccccc3n2)c1 | > 50 | > 50 | > 50 | > 50 | > 50 | > 50 | > 50
19 | Fc1ccc(Nc2nc(-c3cccc(F)c3)nc3ccc(F)cc23)cc1 | > 50 | > 50 | > 50 | > 50 | > 50 | > 50 | > 50
20 | COc1ccc(Nc2nc(-c3cccc(F)c3)nc3ccc(F)cc23)cc1 | 38.6 | 41.1 | 42.3 | 46.8 | 32.3 | 48.4 | 47.3
21 | Fc1cccc(-c2nc(Nc3ccccc3F)c3cc(F)ccc3n2)c1 | > 50 | > 50 | > 50 | > 50 | > 50 | > 50 | > 50
22 | Fc1cccc(-c2nc(Nc3cccc(Cl)c3)c3cc(F)ccc3n2)c1 | > 50 | > 50 | > 50 | > 50 | > 50 | > 50 | > 50
23 | Fc1ccc2nc(-c3ccccc3)nc(Nc3ccccc3)c2c1 | > 50 | > 50 | > 50 | > 50 | > 50 | > 50 | > 50
24 | Fc1cccc(-c2nc(Nc3ccc(Br)cc3)c3cc(F)ccc3n2)c1 | > 50 | > 50 | > 50 | > 50 | > 50 | > 50 | > 50
